Results published in patent US20170305861A1, “HETEROARYL COMPOUNDS COMPRISING NITROGEN AND USE THEREOF” (ImmunoMet Therapeutics, Inc, priority 2016, published 2017).

What follows are molecules tested on A549 cell lines (lung cancer cell lines) (assay: Oxygen Consumption Rate (OCR) of cells, corrected for cell viability (Cyquant)). Conditions: Homo sapiens; A549 cells, 24 h drug treatment, OCR value reflecting cell viability; read-out: OCR IC50.
Assay type: cell-based
Protocol: The compounds synthesized by the methods disclosed in the Examples of the present invention have been measured on oxygen consumption rate and extracellular oxidation by the methods disclosed in the Test Examples below.
3×10^3 cells from A549 cell lines (purchased from ATCC-American Type Culture Collection), which are lung cancer cell lines, were placed on XF96 cell culture plates using RPMI1640 medium, and cultured at 37° C. in a 5% CO2 condition for 16 hours or more for attachment.
After 16 hours, the cells were treated with the drug at six different concentrations between 0 μM and 20 μM. After 24 hours, the existing medium was removed, and XF assay medium (15 mM D-Glucose, 15 mM sodium pyruvate, 4 mM L-Glutamine, pH 7.4) was added. The cells were retreated with the drug, and additionally cultured in Prep station at 37° C. in a non-CO2 condition for 1 hour. During the one-hour culture in the Prep station, a sensor cartridge was placed and calibrated for 20 minutes, and a plate with cells was placed to analyze the OCR. After the analysis was completed, XF96 plate was measured for cell viability using Cyquant assay, which measures the amount of intracellular DNA, in the following method. XF assay medium and the drug were removed, and the cells were placed in a cryogenic refrigerator (−80° C.) for at least 4 hours to be frozen. After the plate was made to be at room temperature, a solution where a lysis buffer and fluorescent GR dye were mixed was placed by 200 μL per well. After 20-minute reaction at room temperature, […] was measured between […] to calculate cell viability. A measured value of a well untreated with the drug was converted to 100% by reflecting cell viability to the OCR value. Concentration of a drug which inhibits the OCR value reflecting cell viability by 50% was calculated.

Row | IC50 | Structure (SMILES)
1 | 0.5 µM | c1c[n+](CCC2CCCCC2)ccc1N1CCOCC1 [Example 53, 1-(2-Cyclohexylethyl)-4-morpholinopyridinium bromide]
2 | 1.1 µM | c1ccc(C[n+]2ccc(N3CCCC3)cc2)cc1 [Example 54, 1-Benzyl-4-(pyrrolidin-1-yl)pyridinium chloride]
3 | 0.8 µM | c1c[n+](CC2CC2)ccc1N1CCCC1 [Example 56, 1-(Cyclopropylmethyl)-4-(pyrrolidin-1-yl)pyridinium chloride]
4 | 3.3 µM | c1ccc(C[n+]2ccc(N3CCCCCC3)cc2)cc1 [Example 60, 4-(Azepan-1-yl)-1-benzylpyridinium chloride]
5 | 7.1 µM | c1c[n+](CC2CC2)cc2c1NCCC2 [Example 63, 6-(Cyclopropylmethyl)-1,2,3,4-tetrahydro-1,6-naphthyridin-6-ium chloride]
6 | 3.4 µM | c1c[n+](CC2CC2)ccc1N1CCC1 [Example 70, 4-(Azetidin-1-yl)-1-(cyclopropylmethyl)pyridinium chloride]

The next lines start with the molecule.

Row | Structure (SMILES) | IC50
7 | c1c[n+](CC2CC2)ccc1N1CCOCC1 [Example 52, 4-Morpholino-1-(cyclopropylmethyl)pyridinium chloride] | 0.8 µM
8 | c1ccc(CC[n+]2ccc(N3CCCC3)cc2)cc1 [Example 55, 1-Phenethyl-4-(pyrrolidin-1-yl)pyridinium chloride] | 3.1 µM
9 | c1c[n+](CC2CCCCC2)ccc1N1CCCC1 [Example 57, 1-(Cyclohexylmethyl)-4-(pyrrolidin-1-yl)pyridinium bromide] | 0.5 µM
10 | c1c[n+](CC2CCC2)ccc1N1CCCC1 [Example 58, 1-(Cyclobutylmethyl)-4-(pyrrolidin-1-yl)pyridinium chloride] | 2.5 µM
11 | c1ccc(C[n+]2ccc(N3CCCCC3)cc2)cc1 [Example 59, 1-Benzyl-4-(piperidin-1-yl)pyridinium chloride] | 2.8 µM
12 | CC(C)(C)CNc1cc[n+](Cc2ccccc2)cc1 [Example 61, 1-Benzyl-4-(neopentylamino)pyridinium chloride] | 15.7 µM
13 | c1c[n+](CC2CC2)cc2c1NCCO2 [Example 64, 6-(Cyclopropylmethyl)-2,3-dihydro-1H-pyrido[3,4-b][1,4]oxazin-6-ium chloride] | 10.2 µM
14 | c1ccc(C[n+]2ccc(N3CCC3)cc2)cc1 [Example 66, 4-(Azetidin-1-yl)-1-benzylpyridinium chloride] | 5.2 µM
15 | c1csc(C[n+]2ccc(N3CCCC3)cc2)c1 [Example 68, 4-(Pyrrolidin-1-yl)-1-(thiophen-2-ylmethyl)pyridinium chloride] | 0.8 µM
16 | c1cc(C[n+]2ccc(N3CCC3)cc2)cs1 [Example 71, 4-(Azetidin-1-yl)-1-(thiophen-3-ylmethyl)pyridinium bromide] | 3.4 µM
17 | Nc1cc[n+](Cc2cccs2)cc1 [Example 77, 4-Amino-1-(thiophen-2-ylmethyl)pyridinium chloride] | 2.4 µM
18 | c1coc(C[n+]2ccc(N3CCCC3)cc2)c1 [Example 78, 1-(Furan-2-ylmethyl)-4-(pyrrolidin-1-yl)pyridinium chloride] | 2.1 µM

The molecules below were run on SK-MEL-28 cells (assay: Inhibitory effect of cancer cell proliferation, MTT). Conditions: Homo sapiens, SK-MEL-28; 0.75 mM glucose, 72 hours, MTT; read-out: SK-MEL-28 0.75 mM glucose Cell viability (IC50 μM).
Assay type: cell-based
Protocol: The compounds prepared in the above Examples were evaluated for the inhibitory effect of cancer cell proliferation according to the method described in the following Test Example.
SK-MEL-28 cells derived from human melanoma were used, and the concentration (cell growth inhibitory concentration, IC50) at which cell growth was inhibited to 50% was measured using MTT reagent (3-(4,5-dimethylthiazole-2-yl)-2,5-[…] bromide) to confirm the inhibitory effect of cancer cell proliferation of the drugs synthesized in Examples 1 to 84.
First, SK-MEL-28 cells were cultured in 96-well plates at a cell number of about 1,250 in RPMI-1640 medium containing 11.1 mM glucose and 10% calf blood serum or 0.75 mM glucose and 10% calf blood serum, and were cultured for 16 hours. […] After treatment of the compound, MTT was added to the culture medium to confirm living cells and further cultured for 2 hours. The resulting formazane crystal was dissolved using dimethyl sulfoxide, and the absorbance of the solution was measured at 555 nm. After culturing for 72 hours, the number of viable cells in the well plate treated with the compounds synthesized in the Examples relative to the number of cells cultured in the well plate without treatment of the compounds was expressed as cell viability (%) according to each treatment concentration. By using this, a cell viability curve graph was prepared, and the inhibitory effect of cancer cell proliferation was confirmed by calculating the concentration of the compound whose growth was inhibited to 50% (IC50).

Row | IC50 | Structure (SMILES)
19 | 8.7 µM | c1c[n+](CCC2CCCCC2)ccc1N1CCOCC1 [Example 53, 1-(2-Cyclohexylethyl)-4-morpholinopyridinium bromide]
20 | 3.4 µM | c1ccc(C[n+]2ccc(N3CCCC3)cc2)cc1 [Example 54, 1-Benzyl-4-(pyrrolidin-1-yl)pyridinium chloride]
21 | 4.4 µM | c1c[n+](CC2CC2)ccc1N1CCCC1 [Example 56, 1-(Cyclopropylmethyl)-4-(pyrrolidin-1-yl)pyridinium chloride]
22 | 20 µM | c1ccc(C[n+]2ccc(N3CCCCCC3)cc2)cc1 [Example 60, 4-(Azepan-1-yl)-1-benzylpyridinium chloride]
23 | 20.4 µM | c1c[n+](CC2CC2)cc2c1NCCC2 [Example 63, 6-(Cyclopropylmethyl)-1,2,3,4-tetrahydro-1,6-naphthyridin-6-ium chloride]
24 | 9.4 µM | c1c[n+](CC2CC2)ccc1N1CCC1 [Example 70, 4-(Azetidin-1-yl)-1-(cyclopropylmethyl)pyridinium chloride]

Continued, molecule first:

Row | Structure (SMILES) | IC50
25 | c1c[n+](CC2CC2)ccc1N1CCOCC1 [Example 52, 4-Morpholino-1-(cyclopropylmethyl)pyridinium chloride] | 40 µM
26 | c1ccc(CC[n+]2ccc(N3CCCC3)cc2)cc1 [Example 55, 1-Phenethyl-4-(pyrrolidin-1-yl)pyridinium chloride] | 0.1 µM
27 | c1c[n+](CC2CCCCC2)ccc1N1CCCC1 [Example 57, 1-(Cyclohexylmethyl)-4-(pyrrolidin-1-yl)pyridinium bromide] | 1.1 µM
28 | c1c[n+](CC2CCC2)ccc1N1CCCC1 [Example 58, 1-(Cyclobutylmethyl)-4-(pyrrolidin-1-yl)pyridinium chloride] | 3 µM
29 | c1ccc(C[n+]2ccc(N3CCCCC3)cc2)cc1 [Example 59, 1-Benzyl-4-(piperidin-1-yl)pyridinium chloride] | 2.8 µM
30 | CC(C)(C)CNc1cc[n+](Cc2ccccc2)cc1 [Example 61, 1-Benzyl-4-(neopentylamino)pyridinium chloride] | 1.5 µM
31 | c1c[n+](CC2CC2)cc2c1NCCO2 [Example 64, 6-(Cyclopropylmethyl)-2,3-dihydro-1H-pyrido[3,4-b][1,4]oxazin-6-ium chloride] | 21 µM
32 | c1ccc(C[n+]2ccc(N3CCC3)cc2)cc1 [Example 66, 4-(Azetidin-1-yl)-1-benzylpyridinium chloride] | 6.1 µM
33 | c1csc(C[n+]2ccc(N3CCCC3)cc2)c1 [Example 68, 4-(Pyrrolidin-1-yl)-1-(thiophen-2-ylmethyl)pyridinium chloride] | 1.7 µM
34 | c1cc(C[n+]2ccc(N3CCC3)cc2)cs1 [Example 71, 4-(Azetidin-1-yl)-1-(thiophen-3-ylmethyl)pyridinium bromide] | 6.8 µM
35 | Nc1cc[n+](Cc2cccs2)cc1 [Example 77, 4-Amino-1-(thiophen-2-ylmethyl)pyridinium chloride] | 15.8 µM
36 | c1coc(C[n+]2ccc(N3CCCC3)cc2)c1 [Example 78, 1-(Furan-2-ylmethyl)-4-(pyrrolidin-1-yl)pyridinium chloride] | 3.55 µM

Same assay, conditions: Homo sapiens, SK-MEL-28; 11.1 mM glucose, 72 hours, MTT; read-out: SK-MEL-28 11.1 mM glucose Cell viability (IC50 μM)

Row | IC50 | Structure (SMILES)
37 | 76.4 µM | c1c[n+](CCC2CCCCC2)ccc1N1CCOCC1 [Example 53, 1-(2-Cyclohexylethyl)-4-morpholinopyridinium bromide]
38 | 29.7 µM | c1ccc(C[n+]2ccc(N3CCCC3)cc2)cc1 [Example 54, 1-Benzyl-4-(pyrrolidin-1-yl)pyridinium chloride]
39 | 118 µM | c1c[n+](CC2CC2)ccc1N1CCCC1 [Example 56, 1-(Cyclopropylmethyl)-4-(pyrrolidin-1-yl)pyridinium chloride]
40 | 24.1 µM | c1ccc(C[n+]2ccc(N3CCCCCC3)cc2)cc1 [Example 60, 4-(Azepan-1-yl)-1-benzylpyridinium chloride]
41 | 208 µM | c1c[n+](CC2CC2)cc2c1NCCC2 [Example 63, 6-(Cyclopropylmethyl)-1,2,3,4-tetrahydro-1,6-naphthyridin-6-ium chloride]
42 | 49.5 µM | c1c[n+](CC2CC2)ccc1N1CCC1 [Example 70, 4-(Azetidin-1-yl)-1-(cyclopropylmethyl)pyridinium chloride]

The remaining lines, values behind:

Row | Structure (SMILES) | IC50
43 | c1c[n+](CC2CC2)ccc1N1CCOCC1 [Example 52, 4-Morpholino-1-(cyclopropylmethyl)pyridinium chloride] | 367 µM
44 | c1ccc(CC[n+]2ccc(N3CCCC3)cc2)cc1 [Example 55, 1-Phenethyl-4-(pyrrolidin-1-yl)pyridinium chloride] | 45.9 µM
45 | c1c[n+](CC2CCCCC2)ccc1N1CCCC1 [Example 57, 1-(Cyclohexylmethyl)-4-(pyrrolidin-1-yl)pyridinium bromide] | 23 µM
46 | c1c[n+](CC2CCC2)ccc1N1CCCC1 [Example 58, 1-(Cyclobutylmethyl)-4-(pyrrolidin-1-yl)pyridinium chloride] | 93.9 µM
47 | c1ccc(C[n+]2ccc(N3CCCCC3)cc2)cc1 [Example 59, 1-Benzyl-4-(piperidin-1-yl)pyridinium chloride] | 33.4 µM
48 | c1c[n+](CC2CC2)cc2c1NCCO2 [Example 64, 6-(Cyclopropylmethyl)-2,3-dihydro-1H-pyrido[3,4-b][1,4]oxazin-6-ium chloride] | 187 µM
49 | c1ccc(C[n+]2ccc(N3CCC3)cc2)cc1 [Example 66, 4-(Azetidin-1-yl)-1-benzylpyridinium chloride] | 77 µM
50 | c1csc(C[n+]2ccc(N3CCCC3)cc2)c1 [Example 68, 4-(Pyrrolidin-1-yl)-1-(thiophen-2-ylmethyl)pyridinium chloride] | 38.5 µM
51 | c1cc(C[n+]2ccc(N3CCC3)cc2)cs1 [Example 71, 4-(Azetidin-1-yl)-1-(thiophen-3-ylmethyl)pyridinium bromide] | 76.4 µM
52 | Nc1cc[n+](Cc2cccs2)cc1 [Example 77, 4-Amino-1-(thiophen-2-ylmethyl)pyridinium chloride] | 106 µM
53 | c1coc(C[n+]2ccc(N3CCCC3)cc2)c1 [Example 78, 1-(Furan-2-ylmethyl)-4-(pyrrolidin-1-yl)pyridinium chloride] | 104 µM
